Biological target: PRMT5/MEP50 (Homo sapiens (Human), UniProt O14744)
Assay: PRMT5 Biochemical Assay (PRMT5/MEP50 enzyme assay on peptide substrate, 3H-SAM Flashplate)
Conditions: PRMT5/MEP50 biochemical assay; read-out: Biochemical IC50
Excerpt: S-adenosylmethionine (SAM), S-adenosylhomocysteine (SAH), bicine, KCl, Tween20, dimethylsulfoxide (DMSO), bovine skin gelatin (BSG), and Tris(2-carboxyethyl)phosphine hydrochloride solution (TCEP) were purchased from Sigma-Aldrich at the highest level of purity possible. ^3H-SAM was purchase from American Radiolabeled Chemicals with a specific activity of 80 Ci/mmol. 384-well streptavidin Flashplates were purchased from PerkinElmer.
Peptide representative of human histone H4 residues 1-15 was synthesized with a C-terminal linker-affinity tag motif and a C-terminal amide cap by 21st Century Biochemicals. […] The sequence was Ac-[…][K-Biot]amide (SEQ ID NO.:3).
Full-length human MEP50 (NM_024102) clone was amplified from a human testis cDNA library incorporating a 5′ sequence encoding a 6-histidine tag (MHHHHHH) (SEQ ID NO.:5) fused directly to Arg 2 of MEP50. The amplified genes were subcloned into pENTR/D/TEV (Life Technologies) and subsequently transferred by Gateway™ attL×attR recombination to pDEST8 baculvirus expression vector (Life Technologies).
Recombinant baculovirus and Baculovirus-Infected Insect Cells (BIIC) were generated according to Bac-to-Bac kit instructions (Life Technologies) and Wasilko, 2006, respectively. Protein over-expression was accomplished by infecting exponentially growing Spodoptera frugiperda (SF9) cell culture at 1.2×10^6 cell/ml with a 5000 fold dilution of BIIC stock. Infections were carried out at 27° C. for 72 hours, harvested by centrifugation, and stored at −80° C. for purification.
Flag-PRMT5/6His-MeP50 was eluted with 300 mM Imidazole in the same buffer. […] Reference: Wasilko, D. J. and S. E. Lee: “TIPS: titerless infected-cells preservation and scale-up” Bioprocess J., 5 (2006), pp. 29-32.
General Procedure for PRMT5/MEP50 Enzyme Assays on Peptide Substrates.
The assays were all performed in a buffer consisting of 20 mM Bicine (pH=7.6), 1 mM TCEP, 0.005% BSG, and 0.002% Tween20, prepared on the day of use. Compounds in 100% DMSO (1 ul) were spotted into a polypropylene 384-well V-bottom plates (Greiner) using a Platemate Plus outfitted with a 384-channel head (Thermo Scientific). DMSO (1 ul) was added to Columns 11, 12, 23, 24, rows A-H for the maximum signal control and 1 ul of SAH, a known product and inhibitor of PRMT5/MEP50, was added to columns 11, 12, 23, 24, rows I-P for the minimum signal control. A cocktail (40 ul) containing the PRMT5/MEP50 enzyme and the peptide was added by Multidrop Combi (Thermo-Fisher). The compounds were allowed to incubate with PRMT5/MEP50 for 30 min at 25 degrees Celsius, then a cocktail (10 ul) containing ^3H-SAM was added to initiate the reaction (final volume=51 ul). The final concentrations of the components were as follows: PRMT5/MEP50 was 4 nM, ^3H-SAM was 75 nM, peptide was 40 nM, SAH in the minimum signal control wells was 100 uM, and the DMSO concentration was 1%. The assays were stopped by the addition of non-radioactive SAM (10 ul) to a final concentration of 600 uM, which dilutes the ^3H-SAM to a level where its incorporation into the peptide substrate is no longer detectable. 50 ul of the reaction in the 384-well polypropylene plate was then transferred to a 384-well Flashplate and the biotinylated peptides were allowed to bind to the streptavidin surface for at least 1 hour before being washed three times with 0.1% Tween20 in a Biotek ELx405 plate washer. The plates were then read in a PerkinElmer TopCount plate reader to measure the quantity of ^3H-labeled peptide bound to the Flashplate surface, measured as disintegrations per minute (dpm) or alternatively, referred to as counts per minute (cpm).
[formula] Where dpm=disintegrations per minute, cmpd=signal in assay well, and min and max are the respective minimum and maximum signal controls.
[formula] Where top and bottom are the normally allowed to float, but may be fixed at 100 or 0 respectively in a 3-parameter fit.

Chain of PRMT5/MEP50 (O14744 other isoform, or with tags, fused parts or gaps): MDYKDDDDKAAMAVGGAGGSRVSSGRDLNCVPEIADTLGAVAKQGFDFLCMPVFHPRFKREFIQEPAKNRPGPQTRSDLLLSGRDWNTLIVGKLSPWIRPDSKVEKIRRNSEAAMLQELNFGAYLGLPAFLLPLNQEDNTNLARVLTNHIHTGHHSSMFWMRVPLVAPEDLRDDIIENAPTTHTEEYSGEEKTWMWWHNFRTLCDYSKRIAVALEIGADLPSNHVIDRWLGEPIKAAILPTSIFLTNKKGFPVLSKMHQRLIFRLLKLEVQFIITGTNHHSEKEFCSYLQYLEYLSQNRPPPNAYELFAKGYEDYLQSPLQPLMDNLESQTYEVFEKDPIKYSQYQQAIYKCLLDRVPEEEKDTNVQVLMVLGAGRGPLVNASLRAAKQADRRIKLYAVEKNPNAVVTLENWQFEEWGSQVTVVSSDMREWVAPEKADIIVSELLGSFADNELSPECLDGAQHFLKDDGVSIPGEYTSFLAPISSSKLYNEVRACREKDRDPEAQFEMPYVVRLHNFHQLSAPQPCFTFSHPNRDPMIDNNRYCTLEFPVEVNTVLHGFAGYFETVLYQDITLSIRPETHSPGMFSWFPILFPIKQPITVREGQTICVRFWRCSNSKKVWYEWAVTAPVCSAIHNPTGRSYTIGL
Chain of PRMT5/MEP50 (Q9BQA1 other isoform, or with tags, fused parts or gaps partner): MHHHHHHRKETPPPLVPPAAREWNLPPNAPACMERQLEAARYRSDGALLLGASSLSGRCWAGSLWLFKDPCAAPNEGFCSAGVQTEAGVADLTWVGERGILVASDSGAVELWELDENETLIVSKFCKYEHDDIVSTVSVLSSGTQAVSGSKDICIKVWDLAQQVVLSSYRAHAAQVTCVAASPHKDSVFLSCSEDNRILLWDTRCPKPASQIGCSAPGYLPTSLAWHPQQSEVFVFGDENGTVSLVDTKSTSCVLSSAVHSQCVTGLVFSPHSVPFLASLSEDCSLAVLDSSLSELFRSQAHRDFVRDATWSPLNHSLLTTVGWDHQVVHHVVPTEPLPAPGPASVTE

IC50 [nM]	SMILES
< 100	O=C(NC[C@H](O)CN1CCc2ccccc2C1)c1ccnc(NCc2cccnc2)c1 [Compound 190]
< 100	NC(=O)CN1CCN(Cc2cccc(C(=O)NCC(O)CN3CCc4ccccc4C3)c2)CC1 (stereo not shown) [Compound 172]
101 to 1000	Cc1ncc(NC2CCNC2)cc1C(=O)NC[C@H](O)CN1CCc2ccccc2C1 (stereo partly shown) [Compound 310]
< 100	O=C(NCC(O)CN1CCc2ccccc2C1)c1cccc(-n2cncn2)c1 (stereo not shown) [Compound 130]
< 100	O=C(NC[C@@H](O)CN1CCc2ccccc2C1)c1cccc(NC2CCOC2)c1 (stereo partly shown) [Compound 81]
< 100	CN1CCN(c2cccc(C(=O)NCC(O)CN3CCc4ccccc4C3)c2)CC1 (stereo not shown) [Compound 36]
< 100	CN1CCN(Cc2ccc(C(=O)NCC(O)CN3CCc4ccccc4C3)cc2)CC1 (stereo not shown) [Compound 163]
< 100	CS(=O)(=O)Nc1cccc(C(=O)NCC(O)CN2CCc3ccccc3C2)c1 (stereo not shown) [Compound 24]
< 100	O=C(NC[C@H](O)CN1CCc2ccccc2C1)c1cnc2ccccc2n1 [Compound 245]
< 100	CN1CCN(Cc2cccc(C(=O)NCC(O)CN3CCc4ccccc4C3)c2)CC1CO (stereo not shown) [Compound 253]
< 100	CS(=O)(=O)N1CC[C@H](Nc2cccc(C(=O)NC[C@H](O)CN3CCc4ccccc4C3)c2)C1 [Compound 268]
101 to 1000	O=C(NC[C@H](O)CN1CCc2ccccc2C1)c1cncc(OC2CCN(CC(F)(F)F)CC2)c1 [Compound 289]
< 100	O=C(NC[C@H](O)CN1CCc2ccccc2C1)c1ccnc(NC2CCNC2)c1 (stereo partly shown) [Compound 201]
< 100	O=C(NCC(O)CN1CCc2ccccc2C1)c1ccc(-n2cncn2)cc1 (stereo not shown) [Compound 110]
< 100	O=C(NCC(O)CN1CCc2ccccc2C1)c1cccc(CN2CCNCC2)c1 (stereo not shown) [Compound 29]
101 to 1000	O=C(NCC(O)CN1CCc2ccccc2C1)c1cccc(NC2CCCOC2)c1 (stereo not shown) [Compound 60]
< 100	CS(=O)(=O)N1CCC(Nc2cc(C(=O)NC[C@H](O)CN3CCc4ccccc4C3)ncn2)C1 (stereo partly shown) [Compound 257]
< 100	CN1CCC(Nc2ccc(C(=O)NCC(O)CN3CCc4ccccc4C3)cc2)CC1 (stereo not shown) [Compound 139]
< 100	COCCN1CCN(Cc2cccc(C(=O)NCC(O)CN3CCc4ccccc4C3)c2)CC1 (stereo not shown) [Compound 114]
< 100	CC(C)(C)C(=O)N1CCC(Oc2ccc(C(=O)NC[C@H](O)CN3CCc4ccccc4C3)cc2)CC1 [Compound 322]
< 100	O=C(NC[C@H](O)CN1CCc2ccccc2C1)c1ccnc(NC2CCOC2)c1 (stereo partly shown) [Compound 306]
< 100	O=C(NCC(O)CN1CCc2ccccc2C1)c1cccc(OC2CCN(CC(F)(F)F)C2)c1 (stereo not shown) [Compound 137]
< 100	O=C(NC[C@H](O)CN1CCc2ccccc2C1)c1ccnc(NC2CCNCC2)c1 [Compound 200]
< 100	Cc1cnc(NC2CCOC2)cc1C(=O)NC[C@H](O)CN1CCc2ccccc2C1 (stereo partly shown) [Compound 308]
101 to 1000	O=C(O)CN1CCN(Cc2cccc(C(=O)NCC(O)CN3CCc4ccccc4C3)c2)CC1 (stereo not shown) [Compound 157]
101 to 1000	CC1=NN(c2ccc(C(=O)NCC(O)CN3CCc4ccccc4C3)cc2)C(=O)C1 (stereo not shown) [Compound 86]
< 100	O=C(NC[C@H](O)CN1CCc2ccccc2C1)c1ccnc(NC2CCCC2)c1 [Compound 334]

IC50 [nM]	SMILES
< 100	O=C(NCC(O)CN1CCc2ccccc2C1)c1cccc(-c2cc[nH]n2)c1 (stereo not shown) [Compound 10]
< 100	O=C(NC[C@H](O)CN1CCc2ccccc2C1)c1cncc(OC2CCOCC2)c1 [Compound 183]
< 100	CC(C)N1CCC(Oc2ccc(C(=O)NCC(O)CN3CCc4ccccc4C3)cc2)CC1 (stereo not shown) [Compound 106]
< 100	CCOC(=O)CN1CCN(Cc2cccc(C(=O)NCC(O)CN3CCc4ccccc4C3)c2)CC1 (stereo not shown) [Compound 165]
< 100	O=C(NCC(O)CN1CCc2ccccc2C1)c1ccc(OC2CCN(CC(F)(F)F)CC2)cc1 (stereo not shown) [Compound 109]
< 100	CC(=O)N1CC[C@H](Nc2cccc(C(=O)NC[C@H](O)CN3CCc4ccccc4C3)c2)C1 [Compound 266]
101 to 1000	Cn1nc(C(=O)NCC(O)CN2CCc3ccccc3C2)cc1NC1CCOCC1 (stereo not shown) [Compound 312]
< 100	O=C(NCC(O)CN1CCc2ccccc2C1)c1cccc(CN2CCN(CCO)CC2)c1 (stereo not shown) [Compound 113]
1000 to 10000	O=C(NC[C@H](O)CN1CCc2ccccc2C1)c1ccc2c(c1O)NCCC2 [Compound 328]
< 100	O=C(NCC(O)CN1CCc2ccccc2C1)c1cccc(-c2ccccn2)c1 (stereo not shown) [Compound 1, N-(3-(3,4-dihydroisoquinolin-2(1H)-yl)-2-hydroxypropyl)-3-(pyridin-2-yl)benzamide]
< 100	NC(=O)CNCCOc1cccc(C(=O)NCC(O)CN2CCc3ccccc3C2)c1 (stereo not shown) [Compound 222]
101 to 1000	O=C(NC[C@H](O)CN1CCc2ccccc2C1)c1c(O)ccc2ccccc12 [Compound 327]
< 100	COc1ccc2oc(C(=O)NC[C@H](O)CN3CCc4ccccc4C3)cc2c1 [Compound 250]
< 100	C[C@@H]1COCCC1Nc1cccc(C(=O)NC[C@H](O)CN2CCc3ccccc3C2)c1 (stereo partly shown) [Compound 212]
< 100	COCCN1CCC(Oc2ccc(C(=O)NC[C@H](O)CN3CCc4ccccc4C3)cc2)CC1 [Compound 329]
101 to 1000	O=C(NC[C@H](O)CN1CCc2ccccc2C1)Nc1ccccc1 [Compound 5]
< 100	O=C(NCC(O)CN1CCc2ccccc2C1)c1cc(NC2CCOCC2)ccn1 (stereo not shown) [Compound 55, N-(3-(3,4-dihydroisoquinolin-2(1H)-yl)-2-hydroxypropyl)-4-((tetrahydro-2H-pyran-4-yl)amino)picolinamide]
< 100	O=C(NCC(O)CN1CCc2ccccc2C1)c1cccc(NC2CCN(CC(F)(F)F)C2)c1 (stereo not shown) [Compound 102]
< 100	CN1CCC(Oc2cc(C(=O)NC[C@H](O)CN3CCc4ccccc4C3)ccn2)CC1 [Compound 202]
< 100	NCCN1CCN(Cc2cccc(C(=O)NCC(O)CN3CCc4ccccc4C3)c2)CC1 (stereo not shown) [Compound 147]
< 100	O=C(NC[C@H](O)CN1CCc2ccccc2C1)c1cccc2c1OCCO2 [Compound 249]
< 100	CN1CC(Nc2cc(C(=O)NC[C@H](O)CN3CCc4ccccc4C3)ncn2)C1 [Compound 281]
< 100	Cc1ccc2cc(C(=O)NCC(O)CN3CCc4ccccc4C3)ccc2n1 (stereo not shown) [Compound 84, N-(3-(3,4-dihydroisoquinolin-2(1H)-yl)-2-hydroxypropyl)-2-methylquinoline-6-carboxamide]
< 100	O=C(NC[C@H](O)CN1CCc2ccccc2C1)c1cncc(NC2CCNC2)c1 (stereo partly shown) [Compound 259]
< 100	O=C(NCC(O)CN1CCc2ccccc2C1)c1ccc(F)c(NC2CCOCC2)c1 (stereo not shown) [Compound 65]
< 100	O=C(NC[C@H](O)CN1CCc2ccccc2C1)c1ccnc(NC2CCOCC2)c1 [Compound 192]
< 100	O=C(NCC(O)CN1CCc2ccccc2C1)c1cccc(-c2ccncc2)c1 (stereo not shown) [Compound 9, N-(3-(3,4-dihydroisoquinolin-2(1H)-yl)-2-hydroxypropyl)-3-(pyridin-4-yl)benzamide]

SMILES	IC50 [nM]
CN1CCC(N(C)c2cccc(C(=O)NCC(O)CN3CCc4ccccc4C3)c2)CC1 (stereo not shown) [Compound 131]	< 100

Source: patent publication US9675614B2, “PRMT5 inhibitors and uses thereof” (Epizyme, Inc., priority 2012, dated 2017)
